Reference: patent publication EP4667467A1, “PROTAC DEGRADERS OF MLLT1 AND/OR MLLT3” (Dark Blue Therapeutics Ltd, priority 2024, dated 2025)

Target: T1, MLLT1 (Homo sapiens, UniProt Q03111)
T1 construct: endogenous in cells; host or cells: MV4-11 (ATCC CRL-9591)
T1 sequence (Q03111 1-559): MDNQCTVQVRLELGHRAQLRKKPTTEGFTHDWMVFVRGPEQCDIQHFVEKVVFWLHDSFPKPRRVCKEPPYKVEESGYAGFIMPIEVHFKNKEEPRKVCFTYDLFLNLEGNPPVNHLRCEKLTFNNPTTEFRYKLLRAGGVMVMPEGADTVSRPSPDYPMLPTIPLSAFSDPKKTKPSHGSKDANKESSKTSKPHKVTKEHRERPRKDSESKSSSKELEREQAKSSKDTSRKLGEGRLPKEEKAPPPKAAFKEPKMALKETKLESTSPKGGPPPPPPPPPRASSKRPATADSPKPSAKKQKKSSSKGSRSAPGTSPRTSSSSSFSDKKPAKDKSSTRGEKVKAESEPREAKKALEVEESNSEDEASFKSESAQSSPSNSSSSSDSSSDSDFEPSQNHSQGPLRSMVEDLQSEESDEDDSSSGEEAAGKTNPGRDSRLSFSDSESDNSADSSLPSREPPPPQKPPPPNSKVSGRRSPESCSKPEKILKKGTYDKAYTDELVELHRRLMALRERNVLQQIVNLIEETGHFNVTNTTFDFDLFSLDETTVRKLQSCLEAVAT
Assay: MLLT1 Degradation Assay (JESS automated chemiluminescent detection, MV4-11 cells)
Assay type: cell-based
Conditions: 24h, with respect to DMSO control; for MLLT1 % Degradation @ 0.01 µM: 0.01 µM (10 nM) test compound; for MLLT1 % Degradation @ 0.1 µM: 0.1 µM (100 nM) test compound; for MLLT 1 % Degradation @ 1 µM: 1 µM (1000 nM) test compound
Protocol: MLLT1 degradation efficacy of compounds were tested in an automated chemiluminescent detection system (JESS, Cat# 004-650). […] 10 mM DMSO stocks were prepared, and cells were treated with three concentrations of test compounds viz. 1000, 100 and 10 nM at a final DMSO concentration of 0.1% and incubated for 24h at 37°C, 5% CO2. […] Post run, data were analysed using "Compass for SW" software for chemiluminescent detection. The peak area for each band was used for the calculation of MLLT1 degradation with respect to DMSO control. Data is shown as "MLLT1 % degradation".

With “3-(1-(3-(1-(2-(2,6-dioxopiperidin-3-yl)-1,3-dioxoisoindolin-4-yl)piperidin-4-yl)propyl)-1H-pyrazol-4-yl)-N-(2-((R)-1-methylpyrrolidin-2-yl)-1H-pyrrolo[3,2-c]pyridin-6-yl)benzamide [Example 47]” the “MLLT1 % Degradation @ 0.01 µM” value was “C (Category C: 25% ≤ C < 50% degradation)”, the “MLLT1 % Degradation @ 0.1 µM” value was “B (Category B: 50% ≤ B < 75% degradation)” and the “MLLT 1 % Degradation @ 1 µM” value was “A (Category A: A ≥ 75% degradation)”.
`CN1CCC[C@@H]1c1cc2cnc(NC(=O)c3ccc(-c4ccn(CCCC#Cc5cccc6c5CN(C5CCC(=O)NC5=O)C6=O)n4)cc3)cc2[nH]1` (mixture of isomers) [Example 20, 4-(1-(5-(2-(2,6-dioxopiperidin-3-yl)-1-oxoisoindolin-4-yl)pent-4-yn-1-yl)-1H-pyrazol-3-yl)-N-(2-((R)-1-methylpyrrolidin-2-yl)-1H-pyrrolo[3,2-c]pyridin-6-yl)benzamide] was tested, and the “MLLT1 % Degradation @ 0.01 µM” value was “B (Category B: 50% ≤ B < 75% degradation)”, the “MLLT1 % Degradation @ 0.1 µM” value was “B (Category B: 50% ≤ B < 75% degradation)” and the “MLLT 1 % Degradation @ 1 µM” value was “C (Category C: 25% ≤ C < 50% degradation)”.
With `CN1CCC[C@@H]1c1cc2cnc(NC(=O)N3CCC(CCC#Cc4cccc5c4CN(C4CCC(=O)NC4=O)C5=O)CC3)cc2[nH]1` (stereo partly drawn) [Example 1, 4-(4-(2-(2,6-dioxopiperidin-3-yl)-1-oxoisoindolin-4-yl)but-3-yn-1-yl)-N-(2-((R)-1-methylpyrrolidin-2-yl)-1H-pyrrolo[3,2-c]pyridin-6-yl)piperidine-1-carboxamide] the “MLLT1 % Degradation @ 0.01 µM” value was “C (Category C: 25% ≤ C < 50% degradation)”, the “MLLT1 % Degradation @ 0.1 µM” value was “C (Category C: 25% ≤ C < 50% degradation)” and the “MLLT 1 % Degradation @ 1 µM” value was “C (Category C: 25% ≤ C < 50% degradation)”.
In the case of `CN1CCC[C@@H]1c1cc2cnc(NC(=O)c3ccc(OCC#Cc4cccc5c4CN(C4CCC(=O)NC4=O)C5=O)nc3)cc2[nH]1` (stereo partly drawn) [Example 2, 6-((3-(2-(2,6-dioxopiperidin-3-yl)-1-oxoisoindolin-4-yl)prop-2-yn-1-yl)oxy)-N-(2-((R)-1-methylpyrrolidin-2-yl)-1H-pyrrolo[3,2-c]pyridin-6-yl)nicotinamide], the “MLLT1 % Degradation @ 0.01 µM” value is reported as “A (Category A: A ≥ 75% degradation)”, the “MLLT1 % Degradation @ 0.1 µM” value is reported as “A (Category A: A ≥ 75% degradation)” and the “MLLT 1 % Degradation @ 1 µM” value is reported as “A (Category A: A ≥ 75% degradation)”.
For `CN1CCC[C@@H]1c1cc2cnc(NC(=O)c3ccc(CC4CCN(c5cccc6c5C(=O)N(C5CCC(=O)NC5=O)C6=O)CC4)cc3)cc2[nH]1` (stereo partly drawn) [Example 3, 4-((1-(2-(2,6-dioxopiperidin-3-yl)-1,3-dioxoisoindolin-4-yl)piperidin-4-yl)methyl)-N-(2-((R)-1-methylpyrrolidin-2-yl)-1H-pyrrolo[3,2-c]pyridin-6-yl)benzamide], the “MLLT1 % Degradation @ 0.01 µM” value was “C (Category C: 25% ≤ C < 50% degradation)”, the “MLLT1 % Degradation @ 0.1 µM” value was “A (Category A: A ≥ 75% degradation)” and the “MLLT 1 % Degradation @ 1 µM” value was “A (Category A: A ≥ 75% degradation)”.
`CN1CCC[C@@H]1c1cc2cnc(NC(=O)c3ccc(CCC4CCN(c5cccc6c5C(=O)N(C5CCC(=O)NC5=O)C6=O)CC4)cc3)cc2[nH]1` (stereo partly drawn) [Example 4, 4-(2-(1-(2-(2,6-dioxopiperidin-3-yl)-1,3-dioxoisoindolin-4-yl)piperidin-4-yl)ethyl)-N-(2-((R)-1-methylpyrrolidin-2-yl)-1H-pyrrolo[3,2-c]pyridin-6-yl)benzamide] was tested, and the “MLLT1 % Degradation @ 0.01 µM” value was “B (Category B: 50% ≤ B < 75% degradation)”, the “MLLT1 % Degradation @ 0.1 µM” value was “A (Category A: A ≥ 75% degradation)” and the “MLLT 1 % Degradation @ 1 µM” value was “A (Category A: A ≥ 75% degradation)”.
`CN1CCC[C@@H]1c1cc2cnc(NC(=O)c3ccc(N4CCN(CC5CCN(c6cccc7c6C(=O)N(C6CCC(=O)NC6=O)C7=O)CC5)CC4)nc3)cc2[nH]1` (stereo partly drawn) [Example 5, 6-(4-((1-(2-(2,6-dioxopiperidin-3-yl)-1,3-dioxoisoindolin-4-yl)piperidin-4-yl)methyl)piperazin-1-yl)-N-(2-((R)-1-methylpyrrolidin-2-yl)-1H-pyrrolo[3,2-c]pyridin-6-yl)nicotinamide] was tested, and the “MLLT1 % Degradation @ 0.01 µM” value was “B (Category B: 50% ≤ B < 75% degradation)”, the “MLLT1 % Degradation @ 0.1 µM” value was “A (Category A: A ≥ 75% degradation)” and the “MLLT 1 % Degradation @ 1 µM” value was “A (Category A: A ≥ 75% degradation)”.
In the case of `CN1CCC[C@@H]1c1cc2cnc(NC(=O)c3ccc(N4CCN(CC#Cc5cccc6c5CN(C5CCC(=O)NC5=O)C6=O)CC4)nc3)cc2[nH]1` (stereo partly drawn) [Example 6, 6-(4-(3-(2-(2,6-dioxopiperidin-3-yl)-1-oxoisoindolin-4-yl)prop-2-yn-1-yl)piperazin-1-yl)-N-(2-((R)-1-methylpyrrolidin-2-yl)-1H-pyrrolo[3,2-c]pyridin-6-yl)nicotinamide], the “MLLT1 % Degradation @ 0.01 µM” value is reported as “A (Category A: A ≥ 75% degradation)”, the “MLLT1 % Degradation @ 0.1 µM” value is reported as “A (Category A: A ≥ 75% degradation)” and the “MLLT 1 % Degradation @ 1 µM” value is reported as “B (Category B: 50% ≤ B < 75% degradation)”.
`CN1CCC[C@@H]1c1cc2cnc(NC(=O)c3ccc(CCCCC#Cc4cccc(C(=O)N[C@H]5CCC(=O)NC5=O)n4)cc3)cc2[nH]1` [Example 7, N-((S)-2,6-dioxopiperidin-3-yl)-6-(6-(4-((2-((R)-1-methylpyrrolidin-2-yl)-1H-pyrrolo[3,2-c]pyridin-6-yl)carbamoyl)phenyl)hex-1-yn-1-yl)picolinamide] was tested, and the “MLLT1 % Degradation @ 0.01 µM” value was “A (Category A: A ≥ 75% degradation)”, the “MLLT1 % Degradation @ 0.1 µM” value was “A (Category A: A ≥ 75% degradation)” and the “MLLT 1 % Degradation @ 1 µM” value was “A (Category A: A ≥ 75% degradation)”.
With `CN1CCC[C@@H]1c1cc2cnc(NC(=O)c3ccc(CCCCC#Cc4cccc5c4CN(C4CCC(=O)NC4=O)C5=O)cc3)cc2[nH]1` (stereo partly drawn) [Example 8, 4-(6-(2-(2,6-dioxopiperidin-3-yl)-1-oxoisoindolin-4-yl)hex-5-yn-1-yl)-N-(2-((R)-1-methylpyrrolidin-2-yl)-1H-pyrrolo[3,2-c]pyridin-6-yl)benzamide] the “MLLT1 % Degradation @ 0.01 µM” value was “A (Category A: A ≥ 75% degradation)”, the “MLLT1 % Degradation @ 0.1 µM” value was “A (Category A: A ≥ 75% degradation)” and the “MLLT 1 % Degradation @ 1 µM” value was “A (Category A: A ≥ 75% degradation)”.
For `CN1CCC[C@@H]1c1cc2cnc(NC(=O)c3ccc(CCCCC#Cc4cccc(N5CCC(=O)NC5=O)n4)cc3)cc2[nH]1` [Example 9, (R)-4-(6-(6-(2,4-dioxotetrahydropyrimidin-1(2H)-yl)pyridin-2-yl)hex-5-yn-1-yl)-N-(2-(1-methylpyrrolidin-2-yl)-1H-pyrrolo[3,2-c]pyridin-6-yl)benzamide], the “MLLT1 % Degradation @ 0.01 µM” value was “A (Category A: A ≥ 75% degradation)”, the “MLLT1 % Degradation @ 0.1 µM” value was “A (Category A: A ≥ 75% degradation)” and the “MLLT 1 % Degradation @ 1 µM” value was “A (Category A: A ≥ 75% degradation)”.
`CN1CCC[C@@H]1c1cc2cnc(NC(=O)c3ccc(CCCCC#Cc4cccc5c4CN(C4CCC(=O)NC4=O)C5=O)nc3)cc2[nH]1` (stereo partly drawn) [Example 10, 6-(6-(2-(2,6-dioxopiperidin-3-yl)-1-oxoisoindolin-4-yl)hex-5-yn-1-yl)-N-(2-((R)-1-methylpyrrolidin-2-yl)-1H-pyrrolo [3,2-c]pyridin-6-yl) nicotinamide] was tested, and the “MLLT1 % Degradation @ 0.01 µM” value was “A (Category A: A ≥ 75% degradation)”, the “MLLT1 % Degradation @ 0.1 µM” value was “A (Category A: A ≥ 75% degradation)” and the “MLLT 1 % Degradation @ 1 µM” value was “B (Category B: 50% ≤ B < 75% degradation)”.
`CN1CCC[C@@H]1c1cc2cnc(NC(=O)c3ccc(CCCC#Cc4ccc(C(=O)N[C@H]5CCC(=O)NC5=O)nc4)cc3)cc2[nH]1` [Example 11, N-((S)-2,6-dioxopiperidin-3-yl)-5-(5-(4-((2-((R)-1-methylpyrrolidin-2-yl)-1H-pyrrolo[3,2-c]pyridin-6-yl)carbamoyl)phenyl)pent-1-yn-1-yl)picolinamide] was tested, and the “MLLT1 % Degradation @ 0.01 µM” value was “D (Category D: D < 25% degradation)”, the “MLLT1 % Degradation @ 0.1 µM” value was “C (Category C: 25% ≤ C < 50% degradation)” and the “MLLT 1 % Degradation @ 1 µM” value was “B (Category B: 50% ≤ B < 75% degradation)”.
In the case of `CN1CCC[C@@H]1c1cc2cnc(NC(=O)c3ccc(CCCC#Cc4cccc5c4CN(C4CCC(=O)NC4=O)C5=O)nc3)cc2[nH]1` (stereo partly drawn) [Example 12, 6-(5-(2-(2,6-dioxopiperidin-3-yl)-1-oxoisoindolin-4-yl)pent-4-yn-1-yl)-N-(2-((R)-1-methylpyrrolidin-2-yl)-1H-pyrrolo[3,2-c]pyridin-6-yl)nicotinamide], the “MLLT1 % Degradation @ 0.01 µM” value is reported as “B (Category B: 50% ≤ B < 75% degradation)”, the “MLLT1 % Degradation @ 0.1 µM” value is reported as “A (Category A: A ≥ 75% degradation)” and the “MLLT 1 % Degradation @ 1 µM” value is reported as “A (Category A: A ≥ 75% degradation)”.
